Reference: patent EP0810221A1 (MITSUBISHI CHEMICAL CORPORATION, priority 1995, dated 1996)

Assays:
IgE = conditions: cited from earlier work
IgG = conditions: cited from earlier work
[1] = rats, osteoclasia accentuated by parathormone; cited from earlier work
[2] = Acute toxicity test, oral; conditions: both sexes, rat, in vivo, orally administered, suspended in 0.5% aqueous CMC-Na, SD male and female rats, observed for seven days
Excerpt: Compounds of the present invention was suspended in 0.5% aqueous solution of CMC-Na and the suspensions were orally administered to SD male and female rats.

[3] = system: experimental model of cataract; conditions: cited from earlier work
[4] = biological target: T1, cathepsin B (Sigma, C-6286) (Bos taurus, UniProt P07688); test: Inhibitory activity against cathepsin B; assay type: biochemical; conditions: Inhibitory activity against cathepsin B (Table-5)
T1 construct: purchased Sigma C-6286
Description: Inhibitory activity against cathepsin B (Sigma, C-6286) was determined according to a method described in a literature (Biochemical Journal, Vol. 201, p. 189, 1982).

m-Calpain = biological target: T2, m-Calpain (Rattus norvegicus, UniProt Q07009); test: Inhibitory activity against calpain (m-Calpain purified from brains of rats); assay type: biochemical
T2 construct: m-Calpain was purified from brains of rats; from tissue; host or cells: rat brain
T2 sequence (Q07009 20-700 limits assumed): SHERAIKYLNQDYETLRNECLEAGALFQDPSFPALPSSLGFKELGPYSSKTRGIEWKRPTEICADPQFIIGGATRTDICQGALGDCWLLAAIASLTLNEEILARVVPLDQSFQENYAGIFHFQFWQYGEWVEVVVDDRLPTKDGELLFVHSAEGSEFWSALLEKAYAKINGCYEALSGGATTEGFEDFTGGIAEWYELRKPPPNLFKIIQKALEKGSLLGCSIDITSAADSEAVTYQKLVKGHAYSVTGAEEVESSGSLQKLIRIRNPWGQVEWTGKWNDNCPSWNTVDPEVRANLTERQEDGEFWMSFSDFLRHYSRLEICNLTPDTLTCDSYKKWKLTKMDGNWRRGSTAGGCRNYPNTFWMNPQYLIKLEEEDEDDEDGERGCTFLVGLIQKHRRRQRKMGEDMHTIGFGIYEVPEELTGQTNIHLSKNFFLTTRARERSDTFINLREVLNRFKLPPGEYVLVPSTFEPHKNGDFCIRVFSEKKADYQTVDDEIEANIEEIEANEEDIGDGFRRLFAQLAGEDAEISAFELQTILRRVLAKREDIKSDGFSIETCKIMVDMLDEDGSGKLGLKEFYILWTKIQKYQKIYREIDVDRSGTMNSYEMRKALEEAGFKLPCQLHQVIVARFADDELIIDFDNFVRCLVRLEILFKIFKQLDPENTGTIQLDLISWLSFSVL
T2 sequence (Q64537 1-270 partner): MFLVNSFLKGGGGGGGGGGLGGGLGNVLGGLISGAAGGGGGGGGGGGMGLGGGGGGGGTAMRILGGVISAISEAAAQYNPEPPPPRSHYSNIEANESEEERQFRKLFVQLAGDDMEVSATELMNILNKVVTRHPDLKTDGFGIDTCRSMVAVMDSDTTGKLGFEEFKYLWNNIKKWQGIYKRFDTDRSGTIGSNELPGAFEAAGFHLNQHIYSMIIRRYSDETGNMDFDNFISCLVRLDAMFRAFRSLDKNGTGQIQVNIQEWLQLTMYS
Description: m-Calpain was purified from brains of rats according to a method described in a literature (Journal of Biological Chemistry, Vol. 259, p. 3210, 1984), and the inhibitory activity was determined in a manner according to a published method (Journal of Biological Chemistry, Vol. 259, p. 12489, 1984).

[5] = Inhibitory activity against calpain (Table-6)
[6] = Inhibitory activity against calpain (continuation of Table-6)

| SMILES | IC50 [4] | IC50 (m-Calpain; [5]) | other results |
| --- | --- | --- | --- |
| NC(N)=NCCCCNC(=O)[C@H](Cc1ccccc1)NC(=O)[C@H]1O[C@@H]1C(=O)O [Estatin A] | – | – | production of IgE (IgE): specifically suppresses; production of IgG (IgG): does not affect; hydroxyproline concentration [1]: lowered; serum calcium concentration [1]: lowered |
| CC(=O)O[C@@H]1OCC[C@@H]1NC(=O)[C@H](CC(C)C)NC(=O)c1ccccc1F [Example 96, (2S,3S)-2-acetoxy-3-{(S)-2-(2-fluorobenzoylamino)-4-methylvalerylamino}tetrahydrofuran] | – | – | LD50 at 7 days [2]: < 2000 mg/kg |
| CC(C)C[C@H](NC(=O)[C@H]1O[C@@H]1C(=O)O)C(=O)NCCCCN=C(N)N [Example E-64, E-64] | – | – | efficacy in an experimental model of cataract [3]: effective; hydroxyproline concentration [1]: lowered; serum calcium concentration [1]: lowered |
| CC(=O)O[C@@H]1OCC[C@@H]1NC(=O)[C@H](CC(C)C)NS(=O)(=O)c1ccc(C)cc1 [Example 106, (2S,3S)-2-acetoxy-3-{(S)-4-methyl-2-(4-methylphenylsulfonylamino)valerylamino}tetrahydrofuran] | – | – | LD50 at 7 days [2]: < 2000 mg/kg |
| COc1cccc(OC)c1C(=O)N[C@@H](CC(C)C)C(=O)N[C@H]1CCOC1O (stereo partly drawn) [Example 55, (3S)-3-{(S)-2-(2,6-dimethoxybenzoylamino)-4-methylvalerylamino}-2-tetrahydrofuranol] | 1650 nM | 840 nM | – |
| Cc1ccc(COC(=O)N[C@@H](CC(C)C)C(=O)N[C@H]2CCOC2O)cc1 (stereo partly drawn) [Example 19, (3S)-3-{(S)-4-methyl-2-(4-methylbenzyloxycarbonylamino)valerylamino}-2-tetrahydrofuranol] | 890 nM | 480 nM | – |
| CC(C)C[C@H](NC(=O)OCC1CCCCO1)C(=O)N[C@H]1CCOC1O (stereo partly drawn) [Example 24, (3S)-3-{(S)-4-methyl-2-(2-tetrahydropyranylmethoxycarbonylamino)valerylamino}-2-tetrahydrofuranol] | 2900 nM | 1300 nM | – |
| CC(C)C[C@H](NC(=O)c1cccc(F)c1)C(=O)N[C@H]1CCOC1O (stereo partly drawn) [Example 41, (3S)-3-{(S)-2-(3-fluorobenzoylamino)-4-methylvalerylamino}-2-tetrahydrofuranol] | 870 nM | 1150 nM | – |
| COc1ccc(COC(=O)N[C@@H](CC(C)C)C(=O)N[C@H]2CCOC2O)cc1 (stereo partly drawn) [Example 21, (3S)-3-{(S)-2-(4-methoxybenzyloxycarbonylamino)-4-methylvalerylamino}-2-tetrahydrofuranol] | 1170 nM | 340 nM | – |
| CC(C)COC(=O)N[C@@H](CC(C)C)C(=O)N[C@H]1CCOC1O (stereo partly drawn) [Example 11, (3S)-3-((S)-2-isobutoxycarbonylamino-4-methylvalerylamino)-2-tetrahydrofuranol] | 2150 nM | 1100 nM | – |
| CC(C)C[C@H](NC(=O)COc1ccccc1)C(=O)N[C@H]1CCOC1O (stereo partly drawn) [Example 34] | 1350 nM | 330 nM | – |
| CC(C)C[C@H](NC(=O)OCC1CCCCC1)C(=O)N[C@H]1CCOC1O (stereo partly drawn) [Example 12, (3S)-3-((S)-2-cyclohexylmethoxycarbonylamino-4-methylvalerylamino)-2-tetrahydrofuranol] | 1200 nM | 650 nM | – |
| COc1ccccc1COC(=O)N[C@@H](CC(C)C)C(=O)N[C@H]1CCOC1O (stereo partly drawn) [Example 20, (3S)-3-{(S)-2-(2-methoxybenzyloxycarbonylamino)-4-methylvalerylamino)-2-tetrahydrofuranol] | 1050 nM | 560 nM | – |

Now from value to molecule, other results behind:

| IC50 [4] | IC50 (m-Calpain; [5]) | SMILES | other results |
| --- | --- | --- | --- |
| 190 nM | – | COc1ccc(C=CC(=O)N[C@@H](CC(C)C)C(=O)N[C@H]2CCOC2O)cc1 (stereo partly drawn) [Example 65, (3S)-3-{(S)-2-(4-methoxycinnamoylamino)-4-methylvalerylamino}-2-tetrahydrofuranol] | IC50 (m-Calpain; [6]): 700 nM |
| 140 nM | 360 nM | CC(C)C[C@H](NC(=O)c1ccc(Cl)cc1)C(=O)N[C@H]1CCOC1O (stereo partly drawn) [Example 43, (3S)-3-{(S)-2-(4-chlorobenzoylamino)-4-methylvalerylamino}-2-tetrahydrofuranol] | – |
| 400 nM | – | CC(C)C[C@H](NS(=O)(=O)c1cccnc1)C(=O)N[C@H]1CCOC1O (stereo partly drawn) [Example 77, (3S)-3-{(S)-4-methyl-2-(3-pyridylsulfonylamino)valerylamino}-2-tetrahydrofuranol] | IC50 (m-Calpain; [6]): 1000 nM |
| 34 nM | – | CC(C)C[C@H](NC(=O)c1ccc2ccccc2c1)C(=O)N[C@H]1CCOC1O (stereo partly drawn) [Example 60, (3S)-3-{(S)-4-methyl-2-(2-naphthoylamino)valerylamino}-2-tetrahydrofuranol] | IC50 (m-Calpain; [6]): 470 nM |
| 210 nM | 480 nM | CC(C)C[C@H](NC(=O)c1ccc(C(F)(F)F)cc1)C(=O)N[C@H]1CCOC1O (stereo partly drawn) [Example 51, (3S)-3-{(S)-4-methyl-2-(4-trifluoromethylbenzoylamino)valerylamino}-2-tetrahydrofuranol] | – |
| 490 nM | 560 nM | Cc1cccc(C(=O)N[C@@H](CC(C)C)C(=O)N[C@H]2CCOC2O)c1 (stereo partly drawn) [Example 45, (3S)-3-{(S)-4-methyl-2-(3-methylbenzoylamino)valerylamino}-2-tetrahydrofuranol] | – |
| 380 nM | 660 nM | CC(C)C[C@H](NC(=O)OCc1ccccc1)C(=O)N[C@H]1CCOC1O (stereo partly drawn) [Example 13, (3S)-3-((S)-2-benzyloxycarbonylamino-4-methylvalerylamino)-2-tetrahydrofuranol] | – |
| 200 nM | 370 nM | CC(C)C[C@H](NC(=O)c1ccccc1)C(=O)N[C@H]1CCOC1O (stereo partly drawn) [Example 39, (3S)-3-((S)-2-benzoylamino-4-methylvalerylamino)-2-tetrahydrofuranol] | – |
| 200 nM | 650 nM | CCc1ccc(C(=O)N[C@@H](CC(C)C)C(=O)N[C@H]2CCOC2O)cc1 (stereo partly drawn) [Example 50, (3S)-3-{(S)-2-(4-ethylbenzoylamino)-4-methylvalerylamino}-2-tetrahydrofuranol] | – |
| 86 nM | 380 nM | Cc1ccc(C(=O)N[C@@H](CC(C)C)C(=O)N[C@H]2CCOC2O)cc1C (stereo partly drawn) [Example 48, (3S)-3-{(S)-2-(3,4-dimethylbenzoylamino)-4-methylvalerylamino}-2-tetrahydrofuranol] | – |
| 640 nM | 390 nM | CC(C)C[C@H](NC(=O)OCc1ccc(Cl)cc1)C(=O)N[C@H]1CCOC1O (stereo partly drawn) [Example 17, (3S)-3-{(S)-2-(4-chlorobenzyloxycarbonylamino)-4-methylvalerylamino}-2-tetrahydrofuranol] | – |
| 580 nM | 440 nM | Cc1ccccc1COC(=O)N[C@@H](CC(C)C)C(=O)N[C@H]1CCOC1O (stereo partly drawn) [Example 18, (3S)-3-{(S)-4-methyl-2-(2-methylbenzyloxycarbonylamino)valerylamino}-2-tetrahydrofuranol] | – |
